Reference: patent US7112586B2, “Substituted diamine derivatives useful as motilin antagonists” (Ortho-McNeil Pharmaceutical, Inc., priority 2000, dated 2006)
Like-named read-outs stand apart in the source and are kept apart here.

Target: T1, Motilin Receptor (Oryctolagus cuniculus, UniProt G1T803)
T1 construct: The muscle tissue was homogenized in 10 volumes of 50 mM Tris-Cl; from tissue; host or cells: rabbit colon smooth muscle, crude membrane homogenate
Assay: Motilin receptor binding, rabbit colon membranes, 125I porcine motilin
Set-up: Rabbit Colon % Inh / inhibition / % Inh (Rabbit colon): dose or concentration left out as unconfirmed
Details: for inhibition: read-out: Rabbit Colon % Inh
Description: Rabbit colon was removed, dissected free from the mucosa and serosa, and diced into small pieces. The muscle tissue was homogenized in 10 volumes of 50 mM Tris-Cl, 10 mM MgCl2, 0.1 mg/ml bacitracin, and 0.25 mM Peflabloc, at pH 7.5 in a Polytron (29000 rpm, 4×15 seconds). The homogenate was centrifuged at 1000×g for 15 minutes and the supernatant discarded. The pellet was washed twice before being suspended in homogenizing buffer. The crude homogenate was resuspended through a 23 gauge needle before storing at −80° C. […] After 60 minutes at 30° C., the samples were cooled in ice, centrifuged in the cold at 13000×g for 1 minute. The pellet was washed twice with 1 ml of cold saline, the supernatant was aspirated, and the pellet at the bottom of the tube counted in a gamma counter. Non-specific binding was determined by the inclusion of 1 mM of unlabeled motilin. IC50 values were determined from Kaleidograph curves.

[1] = rabbit colon membranes, read-out: Rabbit Colon IC50

T1 sequence (G1T803 1-400): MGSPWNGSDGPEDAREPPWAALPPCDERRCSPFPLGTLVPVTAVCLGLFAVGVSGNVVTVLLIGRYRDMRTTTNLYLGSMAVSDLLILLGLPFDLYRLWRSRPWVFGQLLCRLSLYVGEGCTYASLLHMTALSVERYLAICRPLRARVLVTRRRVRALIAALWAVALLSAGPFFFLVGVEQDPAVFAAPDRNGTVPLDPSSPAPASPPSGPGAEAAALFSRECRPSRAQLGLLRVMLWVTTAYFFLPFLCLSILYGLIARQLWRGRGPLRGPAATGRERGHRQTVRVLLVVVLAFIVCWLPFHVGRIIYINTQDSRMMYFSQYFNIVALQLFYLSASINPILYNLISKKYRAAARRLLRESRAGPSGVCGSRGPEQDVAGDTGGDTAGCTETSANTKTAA

| SMILES | Rabbit Colon % Inh (rabbit colon membranes) | further results |
| --- | --- | --- |
| O=C(c1ccc(F)cc1)N(CC1CCCC(N(Cc2cccc(Cl)c2)C(=O)CCc2ccccc2)C1)c1cccc(OCCN2CCOCC2)c1 (stereo not drawn) [compound 104] | 30% | – |
| COc1ccc(CC(=O)N(Cc2cccc(Cl)c2)C2CCCC(CN(C(=O)c3ccc(F)cc3)c3cccc(OCCN4CCOCC4)c3)C2)cc1 (stereo not drawn) [compound 243] | 35% | – |
| O=C(Nc1ccccc1)N(CC1CCCC(N(Cc2ccccc2)C(=O)c2ccco2)C1)c1cccc(OCCN2CCOCC2)c1 (stereo not drawn) [compound 48] | – | inhibition (rabbit colon membranes): 67%; IC50 [1]: 656 nM |
| O=C(Nc1ccccc1)N(CC1CCCC(NS(=O)(=O)c2ccc3ccccc3c2)C1)c1cccc(OCCN2CCOCC2)c1 (stereo not drawn) [compound 71] | 43% | – |
| Cc1ccc(C(=O)N(CCCCC(=O)N(CCc2ccccc2)Cc2ccccc2)c2cccc(OCCN3CCOCC3)c2)cc1 [compound 6] | 24% | – |
| O=C(CCCC(=O)N(Cc1ccc(F)cc1)c1ccc(OCCN2CCOCC2)cc1)N(CCc1ccccc1)Cc1ccccc1 [compound 192] | 15% | – |
| O=C(c1ccc(F)cc1)N(CC1CCCC(N(Cc2cccc(Cl)c2)C(=O)c2ccc(-c3ccccc3)cc2)C1)c1cccc(OCCN2CCOCC2)c1 (stereo not drawn) [compound 109] | 27% | – |
| COc1cccc(C(=O)NC2CCCC(CN(C(=O)Nc3ccccc3)c3cccc(OCCN4CCOCC4)c3)C2)c1 (stereo not drawn) [compound 76] | 26% | – |
| O=C(c1ccc(F)cc1)N(CC1CCCC(N(Cc2cccc(F)c2)C(=O)C(Cl)(Cl)Cl)C1)c1cccc(OCCN2CCOCC2)c1 (stereo not drawn) [compound 100] | 78% | – |
| O=C(Nc1ccccc1)N(CC1CCCC(N(Cc2ccccc2)C(=O)C(Cl)(Cl)Cl)C1)c1cccc(OCCN2CCCC2)c1 (stereo not drawn) [compound 224] | – | inhibition (rabbit colon membranes): 98%; IC50 [1]: 39 nM |
| Cc1ccc2c(c1)C(=O)N(C1CCCC(CN(C(=O)c3ccc(F)cc3)c3cccc(OCCN4CCOCC4)c3)C1)C2=O (stereo not drawn) [compound 256] | 27% | – |
| O=C(CCCC(=O)N(Cc1ccc(F)cc1)c1ccc(OCCCN2CCCCC2)cc1)N(CCc1ccccc1)Cc1ccccc1 [compound 193] | 7% | – |
| O=C(CCCN(C(=O)c1ccc(F)cc1)c1cccc(OCCN2CCOCC2)c1)N(CCc1ccccc1)Cc1ccccc1 [compound 4] | – | IC50: 690 nM; inhibition: 75% |
| O=C(CCCC(=O)N(Cc1ccc(F)cc1)c1cccc(O)c1)N(CCc1ccccc1)Cc1ccccc1 [compound 175] | 0% | – |
| CCN(Cc1ccccc1)C(=O)CCCN(C(=O)c1ccc(C)cc1)c1cccc(OCCN2CCOCC2)c1 [compound 10] | 29% | – |
| O=C(c1ccc(F)cc1)N(CC1CCCC(N(Cc2ccccc2)C(=O)C(c2ccccc2)c2ccccc2)C1)c1cccc(OCCN2CCOCC2)c1 (stereo not drawn) [compound 112] | – | inhibition (rabbit colon membranes): 70%; IC50 [1]: 480 nM |
| CC(C)(C)C(=O)N(Cc1cccc(Cl)c1)C1CCCC(CN(C(=O)c2ccc(F)cc2)c2cccc(OCCN3CCCCC3)c2)C1 (stereo not drawn) [compound 237] | – | inhibition (rabbit colon membranes): 96%; IC50 [1]: 168 nM |
| O=C(c1ccc(F)cc1)N(CC1CCCC(N(Cc2ccccc2)C(=O)CCc2ccccc2)C1)c1cccc(OCCN2CCOCC2)c1 (stereo not drawn) [compound 115] | 26% | – |
| O=C(Nc1ccccc1)N(CC1CCCC(NC(=O)C(Cl)(Cl)Cl)C1)c1cccc(OCCN2CCOCC2)c1 (stereo not drawn) [compound 72] | – | inhibition (rabbit colon membranes): 40% |
| O=C(Nc1ccccc1)N(CC1CCCC(N(Cc2cccc(Cl)c2Cl)C(=O)C(Cl)(Cl)Cl)C1)c1cccc(OCCN2CCOCC2)c1 (stereo not drawn) [compound 66] | 39% | – |
| O=C(CCCC(=O)N(Cc1ccc(F)cc1)c1cccc(OCCN2CCOCC2)c1)N(CCc1ccccc1)Cc1ccccc1 [compound 129] | – | inhibition (rabbit colon membranes): 90%; IC50 [1]: 58 nM |
| CC(C)(C)C(=O)N(Cc1ccccc1)[C@@H]1CCC[C@H](CN(C(=O)Nc2ccccc2)c2cccc(OCCN3CCCC3)c2)C1 [compound 225] | – | inhibition (rabbit colon membranes): 93%; IC50 [1]: 21 nM |
| COc1cccc(C(=O)N(Cc2cccc([N+](=O)[O-])c2)C2CCC(CN(C(=O)Nc3ccccc3)c3cccc(OCCN4CCOCC4)c3)CC2)c1 (stereo not drawn) [compound 186] | 0% | – |
| O=C(Nc1ccccc1)N(CC1CCCC(NCc2cccc(Cl)c2)C1)c1cccc(OCCN2CCOCC2)c1 (stereo not drawn) [compound 85] | – | % Inh (Rabbit colon) (rabbit colon membranes, 125I porcine motilin binding): 28% |
| O=C([C@H](Cc1ccccc1)N(Cc1ccccc1)C(=O)CCc1ccccc1)N(Cc1ccc(F)cc1)c1cccc(OCCN2CCOCC2)c1 [compound 152] | 0% | – |

| SMILES | Rabbit Colon % Inh (rabbit colon membranes) | further results |
| --- | --- | --- |
| COc1cccc(C(=O)N(Cc2ccccc2)C2CCCC(CN(C(=O)Nc3ccccc3)c3cccc(OCCN4CCOCC4)c3)C2)c1 (stereo not drawn) [compound 41] | 58% | – |
| CC(C)(C)C(=O)NC1CCCC(CN(C(=O)Nc2ccccc2)c2cccc(OCCN3CCOCC3)c2)C1 (stereo not drawn) [compound 77] | 19% | – |
| COc1cccc(CN(C(=O)C(Cl)(Cl)Cl)C2CCCC(CN(C(=O)Nc3ccccc3)c3cccc(OCCN4CCOCC4)c3)C2)c1 (stereo not drawn) [compound 61] | 55% | – |
| O=C(Nc1ccccc1)N(CC1CCCC(N(Cc2ccccc2)S(=O)(=O)c2ccc3ccccc3c2)C1)c1cccc(OCCN2CCOCC2)c1 (stereo not drawn) [compound 57] | – | inhibition (rabbit colon membranes): 15% |
| O=C(c1ccc(F)cc1)N(CC1CCCC(N2C(=O)c3cc(Cl)c(Cl)cc3C2=O)C1)c1cccc(OCCN2CCOCC2)c1 (stereo not drawn) [compound 255] | 22% | – |
| O=C(c1ccc(F)cc1)N(CC1CCCC(N(Cc2cccc(Cl)c2)C(=O)CCC2CCCC2)C1)c1cccc(OCCN2CCOCC2)c1 (stereo not drawn) [compound 242] | 36% | – |
| O=C(c1ccc(F)cc1)N(CC1CCCC(N2C(=O)c3ccc4ccc(F)cc4c3C2=O)C1)c1cccc(OCCN2CCOCC2)c1 (stereo not drawn) [compound 261] | 0% | – |
| CC(C)(C)CN(Cc1cccc(Cl)c1)C(=O)c1cccc(CN(C(=O)c2ccc(F)cc2)c2cccc(OCCN3CCOCC3)c2)c1 [compound 141] | 21% | – |
| Cc1ccc(OCCN2CCCC2)cc1N(Cc1ccc(F)cc1)C(=O)CCCC(=O)N(CCc1ccccc1)Cc1ccccc1 [compound 207] | – | inhibition (rabbit colon membranes): 87%; IC50 [1]: 64 nM |
| O=C(c1ccc(F)cc1)N(CC1CCCC(N2C(=O)CC3(CCCC3)CC2=O)C1)c1cccc(OCCN2CCOCC2)c1 (stereo not drawn) [compound 254] | 25% | – |
| O=C(c1ccc(F)cc1)N(Cc1cccc(C(=O)N2CCc3ccccc3C2c2ccccc2)c1)c1cccc(OCCN2CCOCC2)c1 (stereo not drawn) [compound 142] | 17% | – |
| COc1cccc(C(=O)N(Cc2ccccc2)C2CCCC(CN(C(=O)c3ccc(F)cc3)c3cccc(OCCN4CCOCC4)c3)C2)c1 (stereo not drawn) [compound 117] | 17% | – |
| CN(C)CCCOc1cccc(N(Cc2ccc(F)cc2)C(=O)CCCC(=O)N(CCc2ccccc2)Cc2ccccc2)c1 [compound 187] | – | inhibition (rabbit colon membranes): 100%; IC50 [1]: 229 nM |
| O=C(CCCC(=O)N(Cc1ccc(C(F)(F)F)cc1)c1cccc(OCCN2CCOCC2)c1)N(CCc1ccccc1)Cc1ccccc1 [compound 172] | 40% | – |
| O=C(Nc1ccccc1)N(CC1CCCC(NC(=O)C(F)(F)F)C1)c1cccc(OCCN2CCOCC2)c1 (stereo not drawn) [compound 73] | 25% | – |
| O=C([C@H](Cc1ccccc1)N(Cc1ccccc1)C(=O)C(Cl)(Cl)Cl)N(Cc1ccc(F)cc1)c1cccc(OCCN2CCOCC2)c1 [compound 151] | 1% | – |
| CCN(Cc1ccc(C)cc1)C(=O)CCCCN(C(=O)Nc1ccccc1)c1cccc(OCCN2CCOCC2)c1 [compound 34] | 7% | – |
| O=C(Nc1ccccc1)N(CC1CCCC(N(Cc2cccc(Cl)c2)C(=O)c2cc(C(F)(F)F)cc(C(F)(F)F)c2)C1)c1cccc(OCCN2CCOCC2)c1 (stereo not drawn) [compound 49] | 37% | – |
| CN(Cc1ccccc1)C(=O)CCCCN(C(=O)c1ccc(F)cc1)c1cccc(OCCN2CCOCC2)c1 [compound 22] | 23% | – |
| O=C(CCCC(=O)N(Cc1ccc(F)cc1)c1cccc(OCCN2CCOCC2)c1)N(CCc1ccccc1)Cc1cccc([N+](=O)[O-])c1 [compound 205] | – | inhibition (rabbit colon membranes): 76%; IC50 [1]: 100 nM |
| CC(C)(C)C(=O)N(Cc1ccccc1)C1CCCC(CN(C(=O)Nc2ccccc2)c2cccc(OCCN3CCOCC3)c2)C1 (stereo not drawn) [compound 42] | 50% | – |
| O=C(c1ccc(F)cc1)N(CC1CCCC(N(Cc2ccccc2)C(=O)c2cccc([N+](=O)[O-])c2)C1)c1cccc(OCCN2CCOCC2)c1 (stereo not drawn) [compound 113] | 51% | – |
| CCN(Cc1ccccc1)C(=O)CCCCN(c1cccc(OCCN2CCOCC2)c1)S(=O)(=O)c1ccc(C)cc1 [compound 12] | 4% | – |
| O=C(c1ccc(F)cc1)N(CC1CCCC(N(Cc2cccc(Cl)c2)C(=O)C(Cl)(Cl)Cl)C1)c1cccc(OCCN2CCCC2)c1 (stereo not drawn) [compound 212] | – | inhibition (rabbit colon membranes): 89%; IC50 [1]: 58 nM |
